Test results taken from ChEMBL document CHEMBL1777781, “Synthesis and antidyslipidemic activity of chalcone fibrates” (2011).

Columns and labels:
Syrian golden hamster [1] = assay: Antidyslipidemic activity against high fructose high fat diet fed po dosed syrian golden hamster assessed as reduction in glycerol level administered for 7 days relative to untreated control; format: functional, organism-based; conditions: Mesocricetus auratus
Syrian golden hamster [2] = assay: Antidyslipidemic activity against high fructose high fat diet fed po dosed syrian golden hamster assessed as reduction in serum triglyceride administered for 7 days relative to untreated control; format: functional, organism-based; conditions: Mesocricetus auratus
Syrian golden hamster [3] = assay: Antidiabetic activity against high fructose high fat diet fed syrian golden hamster assessed as change in serum insulin level at 30 mg/kg, po for 7 days by ELISA relative to untreated control; format: functional, Mesocricetus auratus
Syrian golden hamster [4] = assay: Antidyslipidemic activity against high fructose high fat diet fed syrian golden hamster assessed as increase in lipoprotein lipase activity at 30 mg/kg, po for 7 days relative to untreated control; format: functional, Mesocricetus auratus
Syrian golden hamster [5] = assay: Antidyslipidemic activity against high fructose high fat diet fed syrian golden hamster assessed as increase in lipoprotein lipase activity at 10 mg/kg, po for 7 days relative to untreated control; format: functional, Mesocricetus auratus
Syrian golden hamster [6] = assay: Antidyslipidemic activity against high fructose high fat diet fed syrian golden hamster assessed as change in serum HDL-cholesterol at 30 mg/kg, po for 7 days relative to untreated control; format: functional, Mesocricetus auratus
Syrian golden hamster [7] = assay: Antidyslipidemic activity against high fructose high fat diet fed syrian golden hamster assessed as reduction in glycerol level at 10 mg/kg, po for 7 days relative to untreated control; format: functional, Mesocricetus auratus; design: scale not given: the % may be the effect or the level left
Syrian golden hamster [8] = assay: Antidyslipidemic activity against high fructose high fat diet fed po dosed syrian golden hamster assessed as reduction in serum cholesterol administered for 7 days relative to untreated control; format: functional, organism-based; conditions: Mesocricetus auratus
Syrian golden hamster [9] = assay: Antidyslipidemic activity against high fructose high fat diet fed syrian golden hamster assessed as change in serum HDL-cholesterol at 10 mg/kg, po for 7 days relative to untreated control; format: functional, Mesocricetus auratus
Syrian golden hamster [10] = assay: Antidyslipidemic activity against high fructose high fat diet fed syrian golden hamster assessed as reduction in serum triglyceride at 10 mg/kg, po for 7 days relative to untreated control; format: functional, Mesocricetus auratus; design: scale not given: the % may be the effect or the level left
Syrian golden hamster [11] = assay: Antidyslipidemic activity against high fructose high fat diet fed po dosed syrian golden hamster assessed as increase in serum HDL-cholesterol administered for 7 days relative to untreated control; format: functional, organism-based; conditions: Mesocricetus auratus
Syrian golden hamster [12] = assay: Antidyslipidemic activity against high fructose high fat diet fed po dosed syrian golden hamster assessed as increase in lipoprotein lipase activity administered for 7 days relative to untreated control; format: functional, organism-based; conditions: Mesocricetus auratus
Syrian golden hamster [13] = assay: Antidyslipidemic activity against high fructose high fat diet fed syrian golden hamster assessed as reduction in NEFA level at 10 mg/kg, po for 7 days relative to untreated control; format: functional, Mesocricetus auratus; design: scale not given: the % may be the effect or the level left
Syrian golden hamster [14] = assay: Antidyslipidemic activity against high fructose high fat diet fed syrian golden hamster assessed as reduction in serum cholesterol at 30 mg/kg, po for 7 days relative to untreated control; format: functional, Mesocricetus auratus; design: scale not given: the % may be the effect or the level left
Syrian golden hamster [15] = assay: Antidyslipidemic activity against high fructose high fat diet fed syrian golden hamster assessed as reduction in serum LDL-cholesterol at 10 mg/kg, po for 7 days relative to untreated control; format: functional, Mesocricetus auratus; design: scale not given: the % may be the effect or the level left
Syrian golden hamster [16] = assay: Antidyslipidemic activity against high fructose high fat diet fed po dosed syrian golden hamster assessed as reduction in serum LDL-cholesterol administered for 7 days relative to untreated control; format: functional, organism-based; conditions: Mesocricetus auratus
Syrian golden hamster [17] = assay: Antidiabetic activity against high fructose high fat diet fed syrian golden hamster assessed as change in fasting blood glucose level at 30 mg/kg, po for 7 days relative to untreated control; format: functional, Mesocricetus auratus
Syrian golden hamster [18] = assay: Antidyslipidemic activity against high fructose high fat diet fed po dosed syrian golden hamster assessed as reduction in NEFA level administered for 7 days relative to untreated control; format: functional, organism-based; conditions: Mesocricetus auratus
Syrian golden hamster [19] = assay: Antidyslipidemic activity against high fructose high fat diet fed syrian golden hamster assessed as reduction in serum LDL-cholesterol at 30 mg/kg, po for 7 days relative to untreated control; format: functional, Mesocricetus auratus; design: scale not given: the % may be the effect or the level left
Syrian golden hamster [20] = assay: Antidyslipidemic activity against high fructose high fat diet fed syrian golden hamster assessed as reduction in serum triglyceride at 30 mg/kg, po for 7 days relative to untreated control; format: functional, Mesocricetus auratus; design: scale not given: the % may be the effect or the level left
Syrian golden hamster [21] = assay: Antidyslipidemic activity against high fructose high fat diet fed syrian golden hamster assessed as reduction in NEFA level at 30 mg/kg, po for 7 days relative to untreated control; format: functional, Mesocricetus auratus; design: scale not given: the % may be the effect or the level left
Syrian golden hamster [22] = assay: Antidyslipidemic activity against high fructose high fat diet fed syrian golden hamster assessed as reduction in glycerol level at 30 mg/kg, po for 7 days relative to untreated control; format: functional, Mesocricetus auratus; design: scale not given: the % may be the effect or the level left
Syrian golden hamster [23] = assay: Antidyslipidemic activity against high fructose high fat diet fed syrian golden hamster assessed as reduction in serum cholesterol at 10 mg/kg, po for 7 days relative to untreated control; format: functional, Mesocricetus auratus; design: scale not given: the % may be the effect or the level left
Syrian golden hamster [24] = assay: Antidyslipidemic activity against high fructose high fat diet fed syrian golden hamster assessed as reduction in body weight at 30 mg/kg, po for 7 days relative to untreated control; format: functional, Mesocricetus auratus; design: scale not given: the % may be the effect or the level left

## CCOC(=O)C(C)(C)Oc1ccc(C(=O)/C=C/c2ccc([N+](=O)[O-])cc2)cc1
Syrian golden hamster [1]
  Activity: Dose-dependent effect
Syrian golden hamster [2]
  Activity: Dose-dependent effect
Syrian golden hamster [3]
  Activity: -24.3%
Syrian golden hamster [4]
  Activity: 21.7%
Syrian golden hamster [5]
  Activity: 10.8%
Syrian golden hamster [6]
  Activity: 5.88%
Syrian golden hamster [7]
  Activity: 7.93%
Syrian golden hamster [8]
  Activity: Dose-dependent effect
Syrian golden hamster [9]
  Activity: -3.36%
Syrian golden hamster [10]
  Activity: 20%
Syrian golden hamster [11]
  Activity: Dose-dependent effect
Syrian golden hamster [12]
  Activity: Dose-dependent effect
Syrian golden hamster [13]
  Activity: 2.45%
Syrian golden hamster [14]
  Activity: 25%
Syrian golden hamster [15]
  Activity: 16.9%
Syrian golden hamster [16]
  Activity: Dose-dependent effect
Syrian golden hamster [17]
  Activity: -7.49%
Syrian golden hamster [18]
  Activity: Dose-dependent effect
Syrian golden hamster [19]
  Activity: 28.5%
Syrian golden hamster [20]
  Activity: 30.4%
Syrian golden hamster [21]
  Activity: 15.9%
Syrian golden hamster [22]
  Activity: 17.2%
Syrian golden hamster [23]
  Activity: 15.6%
Syrian golden hamster [24]
  Activity: 6.85%

## CCOC(=O)C(C)(C)Oc1ccc(/C=C/C(=O)c2ccccc2)cc1
Syrian golden hamster [3]
  Activity: 6.78%
Syrian golden hamster [6]
  Activity: 10.8%
Syrian golden hamster [14]
  Activity: 17.8%
Syrian golden hamster [17]
  Activity: 8.8%
Syrian golden hamster [19]
  Activity: 16.8%
Syrian golden hamster [20]
  Activity: 25.1%

## CCOC(=O)C(C)(C)Oc1ccc(C(=O)/C=C/c2ccccc2Cl)cc1
Syrian golden hamster [3]
  Activity: 2.39%
Syrian golden hamster [6]
  Activity: 15.6%
Syrian golden hamster [14]
  Activity: 0.48%
Syrian golden hamster [17]
  Activity: 4.65%
Syrian golden hamster [19]
  Activity: 16.4%
Syrian golden hamster [20]
  Activity: 21.3%

## CCOC(=O)C(C)(C)Oc1ccc(C(=O)/C=C/c2ccc3c(c2)OCO3)cc1
Syrian golden hamster [1]
  Activity: Dose-dependent effect
Syrian golden hamster [2]
  Activity: Dose-dependent effect
Syrian golden hamster [3]
  Activity: -22.2%
Syrian golden hamster [4]
  Activity: 30.2%
Syrian golden hamster [5]
  Activity: 14.5%
Syrian golden hamster [6]
  Activity: 9.8%
Syrian golden hamster [7]
  Activity: 14.9%
Syrian golden hamster [8]
  Activity: Dose-dependent effect
Syrian golden hamster [9]
  Activity: 3.78%
Syrian golden hamster [10]
  Activity: 20%
Syrian golden hamster [11]
  Activity: Dose-dependent effect
Syrian golden hamster [12]
  Activity: Dose-dependent effect
Syrian golden hamster [13]
  Activity: 6.73%
Syrian golden hamster [14]
  Activity: 26.8%
Syrian golden hamster [15]
  Activity: 25.2%
Syrian golden hamster [16]
  Activity: Dose-dependent effect
Syrian golden hamster [17]
  Activity: -14.8%
Syrian golden hamster [18]
  Activity: Dose-dependent effect
Syrian golden hamster [19]
  Activity: 41.7%
Syrian golden hamster [20]
  Activity: 41.6%
Syrian golden hamster [21]
  Activity: 20.5%
Syrian golden hamster [22]
  Activity: 24.9%
Syrian golden hamster [23]
  Activity: 18.6%
Syrian golden hamster [24]
  Activity: 6.25%

## CCOC(=O)C(C)(C)Oc1ccc(C(=O)/C=C/c2ccc(F)cc2)cc1
Syrian golden hamster [3]
  Activity: -4.9%
Syrian golden hamster [6]
  Activity: 4.8%
Syrian golden hamster [14]
  Activity: 16.8%
Syrian golden hamster [17]
  Activity: -18.4%
Syrian golden hamster [19]
  Activity: 23.2%
Syrian golden hamster [20]
  Activity: 22.2%

## CCOC(=O)C(C)(C)Oc1ccc(C(=O)/C=C/c2ccc(OC)cc2)cc1
Syrian golden hamster [3]
  Activity: -5.87%
Syrian golden hamster [6]
  Activity: -9.9%
Syrian golden hamster [14]
  Activity: 9.3%
Syrian golden hamster [17]
  Activity: -16.9%
Syrian golden hamster [19]
  Activity: 27.4%
Syrian golden hamster [20]
  Activity: 31.2%
